# According to patent US20070010477A1, “Acyl homoserine lactones for inhibition of cell growth” (priority 2005, published 2007):
# How the values were obtained:
# TS [1] = experiment: Western blot of TS protein down-regulation in H630 cells; format: cell-based, human; conditions: for down-regulation of TS protein (activity in words): 18-20 hours after addition
# Procedure: Conventional techniques were used to propagate and maintain the H630 and H630-1 cell lines (see, for example Dolnick, et al. (2003) Cancer Biology & Therapy, 2: 364-369; Stephanie, et al. (2001) In: Proceedings AACR, New Orleans, La., pp. 493). For the investigation of effects on TS expression, cells were extracted at 18-20 hours after the addition of AHLs. For Western blot analysis, proteins were extracted and Western blotting was performed by standard methods using blots blocked with 5% nonfat dried milk dissolved in 10 mM Tris-HCl, pH 8.0, 150 mM sodium chloride, 0.05% Tween-20. The blots were probed using either monoclonal (4D5E11) or polyclonal antibodies to TS and then probed for α-tubulin (monoclonal antibody B-5-1-2, Sigma Biochemicals) to confirm equivalent protein loading. The same blots were successively probed with anti-rTSβ or anti-TS, and finally anti-tubulin. After probing for each protein, the blots were stripped by incubation in 8 M guanidine HCl. Detection of rTS protein was performed with mouse monoclonal antibody D3, prepared against recombinant rTSβ protein. All Western blots were detected using the horseradish peroxidase-based West Pico Dura chemiluminescent substrate (Pierce) and horseradish peroxidase-coupled F(ab′)2 fragments (Jackson ImmunoResearch Laboratories, West Grove, Pa.) as secondary antibodies
# These AHLs were synthesized as described previously (Chhabra, et al., 1993, J. Antibiotics 46, 441-454). For studies with the H630-1 cell line, AHLs were either dissolved in RPMI 1640 (hydroxy-butanoyl-, butanoyl-, 3-(oxo)-hexanoyl-homoserine lactones) or in dimethyl sulfoxide (DMSO) (hexanoyl-homoserine lactones) and added to mid-log H630 cells in RPMI1640 containing 10 μM methionine and 1× ITS+ culture supplement (BD Bioscience) in place of serum at the indicated concentrations. […] After 18 hr, the medium was removed, the cells washed twice and protein extracted. The extracted proteins were separated on denaturing polyacrylamide gels and probed for rTS, TS and tubulin using specific antibodies.
# This embodiment describes the down regulation of TS by AHLs as a ftmction of time. H630 cells were incubated with medium containing 3-oxo-hexanoyl-L-HSL (3 mM) as described for Example 5. The extraction and analysis was also carried out as described in Example 5 at the indicated times after drug addition.
# (§1) A variety of AHLs with acyl-chains containing 4- to 12-carbons (C4-C12) and 3-hydroxy or 3-keto substituents were prepared as described in Example 1 and analyzed for their effect on TS protein expression by Western blotting. Although several of the shorter chain AHLs (C4-C6) can cause loss of TS, the required concentrations are in the mM range. […] The latter observation indicates 3-oxo-C12-HSL has effects on gene expression aside from the down-regulation of TS. In this regard, FIG. 8C provides a photographic representation of the effect of 23 μmol/L 3-oxo-C12-HSL on TS mRNA levels in H630 cells (20 hours of exposure) as evaluated by RT-PCR. […] Microarray analysis of H630 RNA was done using the Affymetrix (Santa Clara, Calif.) HGU133A GeneChip. Microarray data was analyzed using Genetraffic software (Stratagene, La Jolla, Calif.) with the Robust Multichip Analysis method (Lauren et al., (2003) IEEE Trans Nanobioscience; 2:163-70) for measuring probe intensity and scaling. Results for treated and untreated cells were analyzed for significant changes within each experiment (P<0.05) as well as for changes in pooled data from three separate experiments. RNA for RT-PCR or microarray analysis was prepared using an RNAeasy kit from Qiagen (Valencia, Calif.).
# H630 cells [2] = experiment: Colony formation assay; conditions: for enhancement of activity by 3-oxo-C12-HSL: colony formation, 23 μM 3-oxo-C12-HSL
# TS mRNA = experiment: RT-PCR of TS mRNA levels in H630 cells; format: cell-based, human; conditions: 23 μmol/L, 20 hours of exposure
# Procedure: as §1, with “Calif.). […]” for “Calif.).”
# H630-1 = experiment: Sulforhodamine-B growth inhibition assay, 5 days; format: cell-based, human; conditions: H630-1 cells, SRB staining
# Procedure: (§2) For growth inhibition assays described in this Example, H630, H630-1 and PC-3 (prostate cancer cells) cells were growth in the presence of HSL analog for 5 days. At the end of day 5, cells were fixed and stained with Sulforhodamine-B (SRB), a protein-staining dye. Excess SRB was removed leaving only dye bound to proteins from cells. Protein-bound SRB was then dissolved in base and quantified by spectrophotometric absorbance. In this assay, the amount of SRB bound to protein correlates with the number of cells present, allowing for the analysis of growth of treated versus untreated samples. The HSL analogs are administered at 10 concentrations, spanning a 5 log range.
# (§3) The data points in the graphs of FIGS. 13A-13C represent % control growth at a given HSL analog concentration. IC50 values represent the concentration of HSL analog at which growth of the treated cells is inhibited by 50%. The structure of the tested compounds, designated by number, are as set forth in FIG. 13 from which it can be sent that the phenyl-HSL analogs tested range from C5 (compound 12) to C14 (compound 25). […] This effect decreases as the chain length reaches C14, as indicated by an increase in the IC50 values. […] Specifically, the C10 phenyl analog (compound 20) is equally as active as the 3-oxo-C12 HSL used as a positive control, despite having two fewer carbons in the alkyl chain.
# H630 = experiment: Sulforhodamine-B growth inhibition assay, 5 days; format: cell-based, human; conditions: H630 cells, SRB staining
# Procedure: as §2, §3
# [3] = system: PC-3 (prostate cancer cells); experiment: Sulforhodamine-B growth inhibition assay, 5 days; format: cell-based, human; conditions: PC-3 cells, SRB staining
# Procedure: as §2, §3
# TS [4] = molecular target: T1, TS (Homo sapiens, UniProt P04818); experiment: TS modulation assay (luciferase mRNA containing TS binding elements) in H630 cells; format: cell-based; conditions: H630 cells treated with IC50 concentration
# T1 construct: effects of AHLs on TS and tubulin in H630 cells; endogenous in cells; host or cells: H630 human colon cancer cells
# T1 sequence (P04818 whole entry): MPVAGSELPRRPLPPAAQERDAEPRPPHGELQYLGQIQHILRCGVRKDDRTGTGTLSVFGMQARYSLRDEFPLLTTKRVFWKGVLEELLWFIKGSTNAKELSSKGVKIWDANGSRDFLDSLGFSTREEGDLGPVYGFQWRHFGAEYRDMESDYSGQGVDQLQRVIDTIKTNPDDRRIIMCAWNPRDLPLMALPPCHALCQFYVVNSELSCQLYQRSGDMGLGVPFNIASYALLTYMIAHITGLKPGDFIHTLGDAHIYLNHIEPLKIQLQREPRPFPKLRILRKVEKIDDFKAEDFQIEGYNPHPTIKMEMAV
# H630 cells [5] = experiment: Growth inhibition, cells counted 3 days after addition; format: cell-based, human
# tubulin = experiment: Western blot of tubulin in H630 cells; format: cell-based, human; conditions: FIG. 8B
# Procedure: Conventional techniques were used to propagate and maintain the H630 and H630-1 cell lines (see, for example Dolnick, et al. (2003) Cancer Biology & Therapy, 2: 364-369; Stephanie, et al. (2001) In: Proceedings AACR, New Orleans, La., pp. 493). For the investigation of effects on TS expression, cells were extracted at 18-20 hours after the addition of AHLs. For Western blot analysis, proteins were extracted and Western blotting was performed by standard methods using blots blocked with 5% nonfat dried milk dissolved in 10 mM Tris-HCl, pH 8.0, 150 mM sodium chloride, 0.05% Tween-20. […] All Western blots were detected using the horseradish peroxidase-based West Pico Dura chemiluminescent substrate (Pierce) and horseradish peroxidase-coupled F(ab′)2 fragments (Jackson ImmunoResearch Laboratories, West Grove, Pa.) as secondary antibodies
# A variety of AHLs with acyl-chains containing 4- to 12-carbons (C4-C12) and 3-hydroxy or 3-keto substituents were prepared as described in Example 1 and analyzed for their effect on TS protein expression by Western blotting. […] In this regard, FIG. 8C provides a photographic representation of the effect of 23 μmol/L 3-oxo-C12-HSL on TS mRNA levels in H630 cells (20 hours of exposure) as evaluated by RT-PCR. […]
# NCI-H460 = experiment: Growth inhibition; format: cell-based, human; conditions: NCI-H460 lung cancer cell line
# H630-1 cells [6] = experiment: Growth inhibition, cells counted 3 days after addition; format: cell-based, human
# MCF-7 cells = experiment: Growth inhibition; format: cell-based, human; conditions: MCF-7 breast cancer cell line
# H630-1 cells [7] = experiment: Colony formation assay; format: cell-based, human; conditions: for enhancement of activity by 3-oxo-C12-HSL: colony formation, 8 μM 3-oxo-C12-HSL
structure (smiles),measurement,setting,value
"CCCCCC(=O)NC1CCOC1=O (racemic) [C6-HSL racemic mix, hexanoyl-homoserine lactone]",down-regulation of TS protein (activity in words),TS [1]; Western blot,less active
"CCCCCC(=O)N[C@H]1CCOC1=O (single isomer, unassigned) [(L)-isomer of C6-HSL, N-hexanoyl (L-)-homoserine lactone]",down-regulation of TS protein (activity in words),TS [1]; Western blot,active
"CCCC(=O)CC(=O)OCC [3-(oxo)-ethylhexanoate, reference compound]",down-regulation of TS protein (activity in words),TS [1]; Western blot,inactive
"CCCCCCCCCC(=O)CC(=O)N[C@H]1CCOC1=O [3-oxo-C12-HSL, 3-oxo-C12 homoserine lactone]",IC50,"H630 cells [2]; read-out: IC50 for inhibition of cell growth in a clonogenic assay, H630 cells, FIG. 9B solid circles",~10 µM
same,TS mRNA levels,TS mRNA,unaffected
same,IC50,H630-1,12 µM
same,IC50,H630,35 µM
same,IC50,[3],10 µM
same,TS modulatory activity (luminescence),TS [4],no detectable TS modulatory activity
same,IC50,H630 cells [5]; 3 days,23 µM
same,"growth inhibition, relative activity of stereoisomer",H630 cells [5]; FIG. 9B,more active than the racemic mixture
same,effect on tubulin with increasing concentrations,tubulin,appears to decrease
same,IC50,NCI-H460,35 µM
same,IC50,H630-1 cells [6],8 µM
same,concentration needed to reduce the amount of TS,TS [1]; FIG. 8B,1 to 10 µM
same,lowest concentration causing down-regulation of TS,"TS [1]; Western blot, FIG. 8B",10 µM
same,IC50,MCF-7 cells,16 µM
CCCCCC(=O)NC1CCOC1=O (stereo not shown) [C6-(D)—HSL],down-regulation of TS protein (activity in words),TS [1]; Western blot,inactive
"CCCC(=O)CC(=O)N[C@H]1CCOC1=O [Compound 3-oxo-C6-HSL, 3-oxo-N-hexanoyl-(L-)homoserine lactone]",TS modulatory activity (luminescence),TS [4],potent modulator of TS
same,time for which the TS reduction is maintained,TS [1]; 3 mM,approximately 24 hours
same,reduction of TS levels,"TS [1]; 3 mM, after 16 hours",approximately 50%
CCCCCCCCCCCC(=O)N[C@H]1CCOC1=O [Compound C12-HSL],IC50,"H630 cells [5]; FIG. 9B, read-out: IC50 growth inhibition",1000 µM
same,down-regulation of TS protein,TS [1]; at concentrations as high as 100 μM,inactive
"O=c1[nH]cc(F)c(=O)[nH]1 [FU, 5-fluorouracil]",IC50,"H630 cells [2]; Homo sapiens, NCI-H630, 336 h, read-out: apparent IC50 of FU, FU alone",1 µM
same,enhancement of activity by 3-oxo-C12-HSL,H630-1 cells [7],No enhancement
"O=c1[nH]c(=O)n([C@H]2C[C@H](O)[C@@H](CO)O2)cc1F [FUdR, fluorodeoxyuridine]",enhancement of activity by 3-oxo-C12-HSL,H630 cells [2]; H630 cells,enhancement
"O=c1[nH]c(=O)n([C@@H]2O[C@H](CO)[C@@H](O)[C@H]2O)cc1F [FUrd, 5-fluorouridine]",enhancement of activity by 3-oxo-C12-HSL,H630 cells [2]; H630 cells,no enhancement
COc1cccc2c1C(=O)c1c(O)c3c(c(O)c1C2=O)C[C@@](O)(C(=O)CO)C[C@@H]3O[C@H]1C[C@H](N)[C@H](O)[C@H](C)O1 [adriamycin],enhancement of activity by 3-oxo-C12-HSL,H630 cells [2]; H630 cells,not
CN(Cc1cnc2nc(N)nc(N)c2n1)c1ccc(C(=O)N[C@@H](CCC(=O)O)C(=O)O)cc1 [methotrexate],enhancement of activity by 3-oxo-C12-HSL,H630 cells [2]; H630 cells,not
CC(=O)O[C@H]1C(=O)[C@@]2(C)[C@H]([C@H](OC(=O)c3ccccc3)[C@]3(O)C[C@H](OC(=O)[C@H](O)[C@@H](NC(=O)c4ccccc4)c4ccccc4)C(C)=C1C3(C)C)[C@]1(OC(C)=O)CO[C@@H]1C[C@@H]2O [taxol],enhancement of activity by 3-oxo-C12-HSL,H630 cells [2]; H630 cells,some enhancement
same,IC50,"H630 cells [2]; Homo sapiens, NCI-H630, read-out: IC50 colony formation",0.006 µM
same,IC50,"H630-1 cells [7]; Homo sapiens, FIG. 11E",0.02 µM
same,enhancement of activity by 3-oxo-C12-HSL,H630-1 cells [7],some enhancement
Cc1nc2ccc(CN(C)c3ccc(C(=O)N[C@@H](CCC(=O)O)C(=O)O)s3)cc2c(=O)[nH]1 [tomudex],enhancement of activity by 3-oxo-C12-HSL,H630 cells [2]; H630 cells,enhancement
